How the values were obtained:
[1] = Intensive steady-state plasma pharmacokinetics of dolutegravir, Stage I; type: in vivo, human (HIV-1 infected treatment-experienced adolescents); conditions: Stage I N=10, ~1 mg/kg once daily; for AUC(0-t) / concentration at 24 h / Cmax / half-life: human, plasma, oral, 1 mg/kg
CD4 cell count = assay: Change from baseline in CD4 cell count and percentage at Week 48; type: in vivo, human (HIV-1 infected treatment-experienced adolescents); conditions: Week 48, dolutegravir plus OBR
[2] = Safety and adverse events through Week 48
[3] = test system: virus with R263K mutation at virologic failure; conditions: adult study where R263K mutation was seen; cited from earlier work
HIV-1 = assay: Virologic efficacy: plasma HIV-1 RNA through Week 48; type: in vivo, human (HIV-1 infected treatment-experienced adolescents); conditions: Week 48, N=23, dolutegravir plus OBR
HIV = conditions: week 48; cited from earlier work
[4] = in vivo; cited from earlier work
[5] = Grade 1 or 2 transient clinical events, N=23, not considered related to dolutegravir

## C[C@@H]1CCO[C@H]2Cn3cc(C(=O)NCc4ccc(F)cc4F)c(=O)c(O)c3C(=O)N12 [Dolutegravir]
[1]
  C24, GM (geometric mean): 0.90 µg/mL
  CL/F, GM: 78.03 L/h
  CL/F, Mean (SD): 1.25 (±0.97) L/hr
  CL/F, Median (min, max): 0.87 (0.59, 3.83) L/hr
  Tmax, Median (min, max): 3.00 (1.00, 6.00) hr
[1]; AUC0–24, GM, Table 2
  AUC(0-t): 43100 ng·h/mL
[1]; AUC0–24, Mean (SD)
  AUC(0-t): 51600 ng·h/mL
[1]; AUC0–24, Median (min, max)
  AUC(0-t): 52900 ng·h/mL
[1]; C24, GM (geometric mean)
  concentration at 24 h: 900 ng/mL
[1]; C24, Mean (SD)
  concentration at 24 h: 1090 ng/mL
[1]; C24, Median (min, max)
  concentration at 24 h: 1140 ng/mL
[1]; Mean (SD)
  Cmax: 3820 ng/mL
[1]; Median (min, max)
  Cmax: 4010 ng/mL
[1]; T1/2, GM
  half-life: 11.9 h
[1]; T1/2, Median (min, max)
  half-life: 10.4 h
CD4 cell count
  Median (IQR) gain in CD4 cell count: 84 cells/µL
[2]; [5]
  abdominal pain, subjects: 21%
  arthralgia, subjects: 13%
  back pain, subjects: 13%
  decrease appetite, subjects: 30%
  diarrhea, subjects: 35%
  dizziness, subjects: 17%
  extremity pain, subjects: 26%
  fever, subjects: 30%
  headache, subjects: 26%
  lymphadenopathy, subjects: 26%
  nasal congestion, subjects: 30%
  nausea, subjects: 13%
  pharyngeal pain, subjects: 35%
  sinus congestion, subjects: 17%
[2]; through Week 48
  Grade 4 AEs, SAEs or discontinuations due to AEs: no Grade 4 AEs, SAEs or discontinuations due to AEs
[2]; through Week 48, dolutegravir plus OBR
  tolerability: well tolerated
[3]
  dolutegravir FC values at virologic failure: < 2 fold
HIV-1
  Virologic success: proportion with HIV RNA < 400 copies/mL: 74%
  proportion with HIV RNA < 50 copies/mL: 61%

## Cc1nnc(C(=O)NC(C)(C)c2nc(C(=O)NCc3ccc(F)cc3)c(O)c(=O)n2C)o1 [raltegravir]
HIV
  virologic efficacy of the adolescent cohort: 57%

## CCC[C@@]1(CCc2ccccc2)CC(O)=C([C@H](CC)c2cccc(NS(=O)(=O)c3ccc(C(F)(F)F)cn3)c2)C(=O)O1 [tipranavir]
[4]
  children reporting serious adverse events: 25%
  treatment discontinuation due to serious adverse events: 8%

Source: paper PMC4604048 (The Pediatric infectious disease journal, 2015)
